Data reported in patent publication US20170129903A1, “COMPOUNDS COMPRISING 1,1a,2,5a-TETRAHYDROSPIRO[INDOLE-3,2a-PYRROLE]-2,5a-DIONE SYSTEM AS INHIBITORS P53-MDM2 PROTEIN-PROTEIN INTERACTION” (ADAMED SP. Z O.O., priority 2014, published 2017).

Target: T1, p53-Mdm2 interaction (N-terminal domain of Mdm2 protein, amino acids 1-111) (Homo sapiens, UniProt Q00987)
T1 construct: N-terminal domain of Mdm2 protein (amino acids 1-111)
Assay: Fluorescence polarization (FP) binding assay of p53-Mdm2 interaction
Conditions: FP assay, 130 nM Mdm2, FAM-labelled p53 peptide; Ki transformed from IC50 using Kenakin equation
Protocol: The inhibition of p53-Mdm2 interaction was measured using a fluorescence polarization (FP) binding assay. FP measures the rotational movement of molecules in a homogenous suspension. For this assay, N-terminal domain of Mdm2 protein (amino acids 1-111) is combined with a fluorescein-labelled (FAM) peptide derived from p53 trans-activation domain. Upon excitation of the fluorescent ligand with linearly polarized light, […]. If the peptide is bound by Mdm2, rotation will slow down and the perpendicular component will decrease. Disruption of the formation of the peptide-Mdm2 complex due to an inhibitor molecule binding to the p53 binding site of Mdm2 results in faster rotation of the peptide.
Fluorescence polarization experiments were read on Tecan Infinite M1000 reader with the 470 nm excitation and 520 nm emission filters for fluorescein. The fluorescence polarization was measured in black 96-well plates (Corning, CLS3991) in room temperature. Purity of Mdm2 was controlled at >95%. Reaction buffer was optimized by adding 5 mM DTT and 0.1% zwitterionic detergent CHAPS to reduce effect of nonspecific interactions.
The test was performed by combining successive dilution of compounds diluted in dimethyl sulfoxide (DMSO, 5% final concentration) with 130 nM Mdm2 in reaction buffer (PBS, 0.1% CHAPS, 5 mM DTT (dithiothreitol)). After 15 minutes of incubation in room temperature […] FAM-labelled peptide was added. Final reading was performed after 90 minutes of incubation. Dose-dependent binding curves and IC50 values were calculated using GraphPad Prism5 and next transformed to Ki values using Kenakin equation.

T1 sequence (Q00987 1-111): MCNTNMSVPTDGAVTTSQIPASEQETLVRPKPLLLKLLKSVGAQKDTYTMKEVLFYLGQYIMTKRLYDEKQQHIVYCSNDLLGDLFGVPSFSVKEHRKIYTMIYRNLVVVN

First: Cc1ccc(Cl)cc1N1C(=O)C(O)=C(C(=O)C2(C)CC2)C12C(=O)Nc1cc(Cl)ccc12 (stereo not drawn) [Compound 2, 6-chloro-1′-(5-chloro-2-methylphenyl)-4′-hydroxy-3′-(1-methylcyclopropane-carbonyl)-1,1′,2,5′-tetrahydrospiro[indole-3,2′-pyrrole]-2,5′-dione]
Second: COc1ccc(Cl)cc1N1C(=O)C(O)=C(C(=O)C2(C)CC2)C12C(=O)Nc1cc(Cl)ccc12 (stereo not drawn) [Compound 7, 6-chloro-1′-(5-chloro-2-methoxyphenyl)-4′-hydroxy-3′-(1-methylcyclopropane-carbonyl)-1,1′,2,5′-tetrahydrospiro[indole-3,2′-pyrrole]-2,5′-dione]
The Ki of the first is 5.7-fold lower: 122 nM for the first, 700 nM for the second. The first binds more tightly here.

Going from O=C(O)CSC1=C(c2ccccc2)C2(C(=O)Nc3cc(Cl)ccc32)N(c2cccc(Cl)c2)C1=O (stereo not drawn) [Compound 51, 2-[6-chloro-1′-(3-chlorophenyl)-2,5′-dioxo-3′-phenyl-1,1′,2,5′-tetrahydrospiro [indole-3,2′-pyrrole]-4′-ylsulfanyl]acetic acid] to O=C(O)CNC1=C(c2ccccc2)C2(C(=O)Nc3cc(Cl)ccc32)N(c2cccc(Cl)c2)C1=O (stereo not drawn) [Compound 49, 2-{[6-chloro-1′-(3-chlorophenyl)-2,5′-dioxo-3′-phenyl-1,1′,2,5′-tetrahydrospiro [indole-3,2′-pyrrole]-4′-yl]amino}acetic acid], the Ki falls from 130 nM to 38 nM (3.4-fold). The second binds more tightly here.

Going from O=C(C1=C(O)C(=O)N(c2cccc(Cl)c2)C12C(=O)Nc1cc(Cl)ccc12)c1ccccc1 (stereo not drawn) [Compound 3, 3′-benzoyl-6-chloro-1′-(3-chlorophenyl)-4′-hydroxy-1,1′,2,5′-tetrahydrospiro[indole-3,2′-pyrrole]-2,5′-dione] to O=C1C(O)=C(c2cccc(Cl)c2)C2(C(=O)Nc3cc(Cl)ccc32)N1c1ccccc1 (stereo not drawn) [Compound 37, 6-chloro-3′-(3-chlorophenyl)-4′-hydroxy-1′-phenyl-1,1′,2,5′-tetrahydrospiro[indole-3,2′-pyrrole]-2,5′-dione], the Ki rises from 51 nM to 190 nM (3.7-fold). The first binds more tightly here.

CCC(C)SC1=C(O)C(=O)N(c2cccc(Cl)c2)C12C(=O)Nc1cc(Cl)ccc12 (stereo not drawn) [Compound 57, 3′-(butan-2-ylsulfanyl)-6-chloro-1′-(3-chlorophenyl)-4′-hydroxy-1,1′,2,5′-tetrahydrospiro[indole-3,2′-pyrrole]-2,5′-dione] and CC(C)(C)C(=O)C1=C(O)C(=O)N(c2cccc(Cl)c2)C12C(=O)Nc1cc(Cl)ccc12 (stereo not drawn) [Compound 6, 6-chloro-1′-(3-chlorophenyl)-3′-(2,2-tert-butanoyl)-4′-hydroxy-1,1′,2,5′-tetrahydrospiro[indole-3,2′-pyrrole]-2,5′-dione] are within 1.5-fold of each other in Ki: 79 nM for the first, 102 nM for the second.

Compared with CC(C)(C)CN1C(=O)C(O)=C(c2cccc(Cl)c2)C12C(=O)Nc1cc(Cl)ccc12 (stereo not drawn) [Compound 36, 6-chloro-3′-(3-chlorophenyl)-1′-(2,2-dimethylpropyl)-4′-hydroxy-1,1′,2,5′-tetrahydrospiro[indole-3,2′-pyrrole]-2,5′-dione], CC(C)OCC(C)(C)C(=O)C1=C(O)C(=O)N(c2cccc(Cl)c2)C12C(=O)Nc1cc(Cl)ccc12 (stereo not drawn) [Compound 13, 6-chloro-1′-(3-chlorophenyl)-3′-[2,2-dimethyl-3-(propan-2-yloxy)propanoyl]-4′-hydroxy-1,1′,2,5′-tetrahydrospiro[indole-3,2′-pyrrole]-2,5′-dione] is 1.5-fold lower in Ki: 295 nM for the first, 196 nM for the second. The second binds more tightly here.

First: COc1ccccc1-n1nc(C(C)C)c2c1C(=O)N(c1cc(Cl)ccc1C)C21C(=O)Nc2cc(Cl)ccc21 (stereo not drawn) [Compound 32, 6-chloro-5′-(5-chloro-2-methylphenyl)-1′-(2-methoxyphenyl)-3′-(propan-2-yl)-1,2,5′,6′-tetrahydro-1′H-spiro[indole-3,4′-pyrrolo[3,4-c]pyrazole]-2,6′-dione]
Second: COc1ccccc1-n1cc2c(c1C(C)C)C1(C(=O)Nc3cc(Cl)ccc31)N(c1cc(Cl)ccc1N)C2=O (stereo not drawn) [Compound 91, 2′-(2-amino-5-chlorophenyl)-6-chloro-5′-(2-methoxyphenyl)-6′-(propan-2-yl)-1,2,3′,5′-tetrahydro-2′H-spiro[indole-3,1′-pyrrolo[3,4-c]pyrrole]-2,3′-dione]
The Ki of the first is 310-fold higher: 1390 nM for the first, 4.5 nM for the second.

First: CC(C)C(=O)C1=C(O)C(=O)N(c2cc(Cl)ccc2O)C12C(=O)Nc1cc(Cl)ccc12 (stereo not drawn) [Compound 9, 6-chloro-1′-(5-chloro-2-hydroxyphenyl)-4′-hydroxy-3′-(iso-propanoyl)-1,1′,2,5′-tetrahydrospiro[indole-3,2′-pyrrole]-2,5′-dione]
Second: Cc1ccc(Cl)cc1N1C(=O)C(O)=C(C(=O)C(C)C)C12C(=O)Nc1cc(Cl)ccc12 (stereo not drawn) [Compound 8, 6-chloro-1′-(5-chloro-2-methylphenyl)-4′-hydroxy-3′-(iso-propanoyl)-1,1′,2,5′-tetrahydrospiro[indole-3,2′-pyrrole]-2,5′-dione]
The Ki of the first is 2.2-fold higher: 268 nM for the first, 120 nM for the second.

COc1ccc(C(=O)O)cc1-n1nc2c(c1C(C)C)C1(C(=O)Nc3cc(Cl)ccc31)N(c1cc(Cl)ccc1O)C2=O (stereo not drawn) [Compound 76, 3-[6-chloro-5′-(5-chloro-2-hydroxy-phenyl)-2,6′-dioxo-3′-(propan-2-yl)-1,2,5′,6′-tetrahydro-2′H-spiro[indole-3,4′-pyrrolo[3,4-c]pyrazole]-2′-yl]-4-methoxybenzoic acid] and COc1ccc(C(N)=O)cc1-n1nc2c(c1C(C)C)C1(C(=O)Nc3cc(Cl)ccc31)N(c1cc(Cl)ccc1O)C2=O (stereo not drawn) [Compound 75, 3-[6-chloro-5′-(5-chloro-2-hydroxy-phenyl)-2,6′-dioxo-3′-(propan-2-yl)-1,2,5′,6′-tetrahydro-2′H-spiro[indole-3,4′-pyrrolo[3,4-c]pyrazole]-2′-yl]-4-methoxybenzamide] are the same in Ki: 3.6 nM for the first, 3.6 nM for the second.

First: CCOC(=O)CNC1=C(C(=O)C2(C)CC2)C2(C(=O)Nc3cc(Cl)ccc32)N(c2cccc(Cl)c2)C1=O (stereo not drawn) [Compound 15, ethyl 2-{[6-chloro-1′-(3-chlorophenyl)-3′-(1-methylcyclopropanecarbonyl)-2,5′-dioxo-1,1′,2,5′-tetrahydrospiro[indole-3,2′-pyrrole]-4′-yl]amino}acetate]
Second: CC1(C(=O)C2=C(O)C(=O)N(c3cccc(Cl)c3)C23C(=O)Nc2cc(Cl)ccc23)CC1 (stereo not drawn) [Compound 5, 6-chloro-1′-(3-chlorophenyl)-4′-hydroxy-3′-(1-methylcyclopropanecarbonyl)-1,1′,2,5′-tetrahydrospiro[indole-3,2′-pyrrole]-2,5′-dione]
The Ki of the first is 1.8-fold higher: 349 nM for the first, 194 nM for the second. The second binds more tightly here.

Compared with O=C1C(O)=C(Sc2ccc(Cl)cc2)C2(C(=O)Nc3cc(Cl)ccc32)N1c1cccc(Cl)c1 (stereo not drawn) [Compound 54, 6-chloro-1′-(3-chlorophenyl)-3′-[(4-chlorophenyl)sulfanyl]-4′-hydroxy-1,1′,2,5′-tetrahydrospiro[indole-3,2′-pyrrole]-2,5′-dione], O=C1C(O)=C(Sc2ccc(Cl)cc2)[C@]2(C(=O)Nc3cc(Cl)ccc32)N1c1cccc(Cl)c1 [Compound 55, (3S)-6-chloro-1′-(3-chlorophenyl)-3′-[(4-chlorophenyl)sulfanyl]-4′-hydroxy-1,1′,2,5′-tetrahydrospiro[indole-3,2′-pyrrole]-2,5′-dione] is 16-fold higher in Ki: 123 nM for the first, 1910 nM for the second. The first binds more tightly here.

Going from COc1ccccc1-n1cc2c(c1C(C)C)C1(C(=O)Nc3cc(Cl)ccc31)N(c1cccc(Cl)c1)C2=O (stereo not drawn) [Compound 89, 6-chloro-2′-(3-chlorophenyl)-5′-(2-methoxyphenyl)-6′-(propan-2-yl)-1,2,3′,5′-tetrahydro-2′H-spiro[indole-3,1′-pyrrolo [3,4-c]pyrrole]-2,3′-dione] to COc1ccccc1-n1nc2c(c1C(C)C)C1(C(=O)Nc3cc(Cl)ccc31)N(c1cc(Cl)c(=O)n(C)c1)C2=O (stereo not drawn) [Compound 63, 6-chloro-5′-(5-chloro-1-methyl-6-oxo-1,6-dihydropyridin-3-yl)-2′-(2-methoxy-phenyl)-3′-(propan-2-yl)-1,2,5′,6′-tetrahydro-2′H-spiro[indole-3,4′-pyrrolo [3,4-c]pyrazole]-2,6′-dione], the Ki falls from 5.3 nM to 2.4 nM (2.2-fold).

Going from COc1ccc(Cl)cc1N1C(=O)C(O)=C(C(=O)C(C)C)C12C(=O)Nc1cc(Cl)ccc12 (stereo not drawn) [Compound 10, 6-chloro-1′-(5-chloro-2-methoxyphenyl)-4′-hydroxy-3′-(iso-propanoyl)-1,1′,2,5′-tetrahydrospiro[indole-3,2′-pyrrole]-2,5′-dione] to O=C1C(O)=C(Sc2ccc(Cl)cc2)[C@@]2(C(=O)Nc3cc(Cl)ccc32)N1c1cccc(Cl)c1 [Compound 56, (3R)-6-chloro-1′-(3-chlorophenyl)-3′[(4-chlorophenyl)sulfanyl]-4′-hydroxy-1,1′,2,5′-tetrahydrospiro[indole-3,2′-pyrrole]-2,5′-dione], the Ki falls from 610 nM to 100 nM (6.1-fold).

Going from O=C1C(O)=C(c2ccccc2)C2(C(=O)Nc3cc(F)ccc32)N1c1cccc(Cl)c1 (stereo not drawn) [Compound 42, 1′-(3-chlorophenyl)-6-fluoro-4′-hydroxy-3′-phenyl-1,1′,2,5′-tetrahydrospiro[indole-3,2′-pyrrole]-2,5′-dione] to O=C1C(O)=C(c2ccccc2)C2(C(=O)Nc3ccccc32)N1c1cccc(Cl)c1 (stereo not drawn) [Compound 39, 1′-(3-chlorophenyl)-4′-hydroxy-3′-phenyl-1,1′,2,5′-tetrahydrospiro[indole-3,2′-pyrrole]-2,5′-dione], the Ki rises from 90 nM to 750 nM (8.3-fold).

Same assay, conditions: G=S

O=C1C(O)=C(Sc2ccc(Cl)cc2)[C@]2(C(=O)Nc3cc(Cl)ccc32)N1c1cccc(Cl)c1 [Compound 55, (3S)-6-chloro-1′-(3-chlorophenyl)-3′-[(4-chlorophenyl)sulfanyl]-4′-hydroxy-1,1′,2,5′-tetrahydrospiro[indole-3,2′-pyrrole]-2,5′-dione] was tested, and the “times less potent than Compound 56 (enantiomer)” value was “about 19 times”.
